The term EC50 denotes the concentration that produces a half-maximal response.

From patent US20230045421A1 (priority 2018, published 2023) come the findings set out here.

One assay concerns HBV rcDNA. Briefly: HepDE19 assay with bDNA quantitation of HBV rcDNA. The assay is classed as cell-based, hepatitis B virus. The settings on record: HepDE19 assay, inhibition of formation of rcDNA; read-out: DE-19bDNA EC50. On the procedure: HepDE19 Assay with bDNA Quantitation of HBV rcDNA:
HepDE19 cell culture system is a HepG2 (human hepatocarcinoma) derived cell line that supports HBV DNA replication and cccDNA formation in a tetracycline (Tet)-regulated manner and produces HBV rcDNA and a detectable reporter molecule dependent on the production and maintenance of cccDNA (Guo, et al., 2007, J. Virol. 81:12472-12484).
HepDE19 (50,000 cells/well) were plated in 96-well collagen-coated tissue-culture treated microtiter plates in DMEM/F12 medium supplemented with 10% fetal bovine serum, 1% penicillin-streptomycin and 1 μg/mL tetracycline and incubated in a humidified incubator at 37° C. and 5% CO2 overnight. Next day, the cells were switched to fresh medium without tetracycline and incubated for 4 hours at 37° C. and 5% CO2. The cells were treated with fresh Tet-free medium with compounds at concentrations starting at 25 μM and a serial, […], 8-point, titration series in duplicate. The final DMSO concentration in the assay was 0.5%. The plates were incubated for 7 days in a humidified incubator at 37° C. and 5% CO2. Following a 7 day-incubation, the level of rcDNA present in the inhibitor-treated wells was measured using a Quantigene 2.0 bDNA assay kit (Affymetrix, Santa Clara, Calif.) with HBV specific custom probe set and manufacturers instructions. Concurrently, the effect of compounds on cell viability was assessed using replicate plates, plated at a density of 5,000 cells/well and incubated for 4 days, to determine the ATP content as a measure of cell viability using the cell-titer glo reagent (CTG; Promega Corporation, Madison, Wis.) as per manufacturer's instructions. The plates were read using a Victor luminescence plate reader (PerkinElmer Model 1420 Multilabel counter) and the relative luminescence units (RLU) data generated from each well was calculated as % inhibition of the untreated control wells and analyzed using XL-Fit module in Microsoft Excel to determine EC50 and EC90 (bDNA) and CC50 (CTG) values using a 4-parameter curve fitting algorithm.
Regarding `CC(c1cn(C)c(=O)c2ccccc12)N(C)C(=O)Nc1ccc(F)c(Cl)c1` (single isomer, unassigned) [Compound 181, 3-(3-Chloro-4-fluorophenyl)-1-methyl-1-(1-(2-methyl-1-oxo-1,2-dihydroisoquinolin-4-yl)ethyl)urea], the EC50 came to 1.8 µM.

For the compound `CC(c1c[nH]c(=O)c2ccccc12)N(CCO)C(=O)Nc1ccc(F)c(Cl)c1` (single isomer, unassigned) [Compound 196, 3-(3-Chloro-4-fluorophenyl)-1-(2-hydroxyethyl)-1-(1-(1-oxo-1,2-dihydroisoquinolin-4-yl)ethyl)urea], the EC50 was determined as 20 µM.

For `CC(c1c[nH]c(=O)c2ccccc12)N(CCCCO)C(=O)Nc1ccc(F)c(Cl)c1` (single isomer, unassigned) [Compound 149, 3-(3-Chloro-4-fluorophenyl)-1-(4-hydroxybutyl)-1-(1-(1-oxo-1,2-dihydroisoquinolin-4-yl)ethyl)urea], the EC50 was determined as 3.3 µM.

Turning to `CC(c1c[nH]c(=O)c2ccccc12)N(C[C@@H](C)O)C(=O)Nc1ccc(F)c(Cl)c1` (single isomer, unassigned) [Compound 215], the EC50 stood at 23 µM.

For `CC(c1c[nH]c(=O)c2ccccc12)N(CC1CCCCC1)C(=O)Nc1ccc(F)c(Cl)c1` (single isomer, unassigned) [Compound 194, 3-(3-Chloro-4-fluorophenyl)-1-(cyclohexylmethyl)-1-(1-(1-oxo-1,2-dihydroisoquinolin-4-yl)ethyl)urea], the EC50 came to 0.95 µM.

Consider `COc1ccc2c(=O)[nH]cc(C(C)N(C)C(=O)Nc3ccc(F)c(Cl)c3)c2c1` (single isomer, unassigned) [Compound 179, 3-(3-Chloro-4-fluorophenyl)-1-(1-(6-methoxy-1-oxo-1,2-dihydroisoquinolin-4-yl)ethyl)-1-methylurea], for which the EC50 came to 7.3 µM.

Turning to `CC(c1cnc(OCc2nc[nH]n2)c2ccccc12)N(CCCO)C(=O)Nc1ccc(F)c(Cl)c1` (single isomer, unassigned) [Compound 259, 1-(1-(1-((1H-1,2,4-Triazol-3-yl)methoxy)isoquinolin-4-yl)ethyl)-3-(3-chloro-4-fluorophenyl)-1-(3-hydroxypropyl)urea], the EC50 came out at 2.1 µM.

The assay is the same for the next values; noted with them: HepDE19 assay, inhibition of formation of relaxed circular DNA (rcDNA), bDNA quantitation; read-out: DE-19bDNA EC50.
For the compound `CC(C)CN(C(=O)Nc1ccc(F)c(Cl)c1)C(C)c1c[nH]c(=O)c2c(F)cc(F)cc12` (single isomer, unassigned) [Compound 372, 3-(3-Chloro-4-fluorophenyl)-1-(1-(6,8-difluoro-1-oxo-1,2-dihydroisoquinolin-4-yl)ethyl)-1-isobutylurea], the EC50 was found to be 0.005 µM.

Take `CCN(C(=O)Nc1ccc(F)c(F)c1)C(C)c1c[nH]c(=O)c2cc(F)c(F)cc12` (single isomer, unassigned) [Compound 422, 1-(1-(6,7-Difluoro-1-oxo-1,2-dihydroisoquinolin-4-yl)ethyl)-3-(3,4-difluorophenyl)-1-ethylurea]: the EC50 is 2.8 µM.

Take `CC(c1cn(C)c(=O)c2c(F)c(F)ccc12)N(C)C(=O)Nc1ccc(F)c(Cl)c1` (single isomer, unassigned) [Compound 332, 3-(3-Chloro-4-fluorophenyl)-1-(1-(7,8-difluoro-2-methyl-1-oxo-1,2-dihydroisoquinolin-4-yl)ethyl)-1-methylurea]: the EC50 worked out at 3.7 µM.

With `CC(c1cnc(OCc2ncn(C)n2)c2cc(F)c(F)cc12)N(C)C(=O)Nc1ccc(F)c(Cl)c1` (single isomer, unassigned) [Compound 346, 3-(3-Chloro-4-fluorophenyl)-1-(1-(6,7-difluoro-1-((1-methyl-1H-1,2,4-triazol-3-yl)methoxy)isoquinolin-4-yl)ethyl)-1-methylurea], the EC50 was 0.67 µM.

Take `CC(c1c[nH]c(=O)c2cc(F)c(F)cc12)N(C)C(=O)NCc1ccc(F)c(F)c1` (single isomer, unassigned) [Compound 476, 1-(1-(6,7-Difluoro-1-oxo-1,2-dihydroisoquinolin-4-yl)ethyl)-3-(3,4-difluorobenzyl)-1-methylurea]: the EC50 came to 0.43 µM.

Regarding `CCN(C(=O)Nc1ccc(F)cc1)C(C)c1c[nH]c(=O)c2c(F)c(F)ccc12` (single isomer, unassigned) [Compound 464, 1-(1-(7,8-Difluoro-1-oxo-1,2-dihydroisoquinolin-4-yl)ethyl)-1-ethyl-3-(4-fluorophenyl)urea], the EC50 came out at 2.9 µM.

With `Cc1cc(NC(=O)N(C)C(C)c2c[nH]c(=O)c3cc(F)c(F)cc23)ccc1F` (single isomer, unassigned) [Compound 426, 1-(1-(6,7-Difluoro-1-oxo-1,2-dihydroisoquinolin-4-yl)ethyl)-3-(4-fluoro-3-methylphenyl)-1-methylurea], the EC50 turned out to be 0.11 µM.

Staying with this assay, now noted: Hepatitis B virus, HepDE19, HepDE19 assay, inhibition of formation of rcDNA; read-out: DE-19bDNA EC50.
Regarding `COc1ncc(CN(CCO)C(=O)Nc2ccc(F)c(Cl)c2)c2ccccc12` [Compound 21, 3-(3-Chloro-4-fluorophenyl)-1-(2-hydroxyethyl)-1-((1-methoxyisoquinolin-4-yl)methyl)urea], the half-maximal effective concentration (EC50) came out at 18 µM.

`CCCN(C(=O)Nc1ccc(F)c(Cl)c1)[C@H](C)c1c[nH]c(=O)c2ccccc12` [Compound 35, (R)-3-(3-Chloro-4-fluorophenyl)-1-(1-(1-oxo-1,2-dihydroisoquinolin-4-yl)ethyl)-1-propylurea]: the EC50 came out at 0.01 µM.

As to `CC(C)CN(C(=O)Nc1ccc(F)c(Cl)c1)C(C)c1c[nH]c(=O)c2cnccc12` (racemic) [Compound 154, 3-(3-Chloro-4-fluorophenyl)-1-isobutyl-1-(1-(1-oxo-1,2-dihydro-2,7-naphthyridin-4-yl)ethyl)urea], the EC50 stood at 0.02 µM.

Consider `CN(Cc1cnc(OCc2ccccn2)c2ccccc12)C(=O)Nc1ccc(F)c(Cl)c1` [Compound 88, 3-(3-Chloro-4-fluorophenyl)-1-methyl-1-((1-(pyridin-2-ylmethoxy)isoquinolin-4-yl)methyl)urea], for which the concentration giving a half-maximal response (EC50) was determined as 1.1 µM.

Staying with this assay, now noted: Hepatitis B virus, HepDE19, HepDE19 assay, inhibition of formation of relaxed circular DNA (rcDNA), bDNA quantitation; read-out: DE-19bDNA EC50.
Take `CC(c1c[nH]c(=O)c2c(F)cc(F)cc12)N(CCCO)C(=O)Nc1ccc(F)c(Cl)c1` (single isomer, unassigned) [Compound 374, 3-(3-Chloro-4-fluorophenyl)-1-(1-(6,8-difluoro-1-oxo-1,2-dihydroisoquinolin-4-yl)ethyl)-1-(3-hydroxypropyl)urea]: the EC50 was determined as 0.006 µM.

Turning to `CC(c1c[nH]c(=O)c2c(F)c(F)ccc12)N(C)C(=O)Nc1ccnc(Cl)c1` (single isomer, unassigned) [Compound 454, 3-(2-Chloropyridin-4-yl)-1-(1-(7,8-difluoro-1-oxo-1,2-dihydroisoquinolin-4-yl)ethyl)-1-methylurea], the EC50 amounted to 0.17 µM.

Staying with this assay, now noted: Hepatitis B virus, HepDE19, read-out: DE-19bDNA EC50 (μM), HepDE19 assay, inhibition of formation of rcDNA.
Regarding `C[C@H](c1c[nH]c(=O)c2ccccc12)N(C)C(=O)Nc1ccc(F)c(C#N)c1` [Compound 98, (R)-3-(3-Cyano-4-fluorophenyl)-1-methyl-1-(1-(1-oxo-1,2-dihydroisoquinolin-4-yl)ethyl)urea], the EC50 was 0.16 µM.

The assay is the same for the next values; noted with them: Hepatitis B virus, HepDE19, read-out: DE-19bDNA EC50 (μM), HepDE19 assay, inhibition of formation of relaxed circular DNA (rcDNA), bDNA quantitation.
Take `CC(c1c[nH]c(=O)c2c(F)c(F)ccc12)N(C)C(=O)N[C@@H](C)c1ccccc1` (single isomer, unassigned) [Compound 487]: the EC50 worked out at 23 µM.

As to `CC(c1c[nH]c(=O)c2c(F)c(F)ccc12)N(C)C(=O)NCc1ccccc1` (single isomer, unassigned) [Compound 453, 3-Benzyl-1-(1-(7,8-difluoro-1-oxo-1,2-dihydroisoquinolin-4-yl)ethyl)-1-methylurea], the EC50 worked out at 0.29 µM.

The same assay, now with this note: read-out: DE-19bDNA EC50; HepDE19 assay, inhibition of formation of rcDNA.
For `CC(c1c[nH]c(=O)c2ccccc12)N(CC[C@H](C)O)C(=O)Nc1ccc(F)c(Cl)c1` (single isomer, unassigned) [Compound 214], the EC50 stood at 0.047 µM.

For `CC(c1c[nH]c(=O)c2ccccc12)N(CCCO)C(=O)Nc1ccc(F)c(Cl)c1` (single isomer, unassigned) [Compound 130, 3-(3-Chloro-4-fluorophenyl)-1-(3-hydroxypropyl)-1-(1-(1-oxo-1,2-dihydroisoquinolin-4-yl)ethyl)urea], the EC50 was 7.9 µM.

Still in this assay, the particulars now being: read-out: DE-19bDNA EC50; HepDE19 assay, inhibition of formation of relaxed circular DNA (rcDNA), bDNA quantitation.
Consider `CC(c1c[nH]c(=O)c2cc(F)c(F)cc12)N(C)C(=O)Nc1cc(Cl)cc(Cl)c1` (single isomer, unassigned) [Compound 416, 3-(3,5-Dichlorophenyl)-1-(1-(6,7-difluoro-1-oxo-1,2-dihydroisoquinolin-4-yl)ethyl)-1-methylurea], for which the EC50 stood at 10 µM.
